In PubChem BioAssay (NCI):
Several values for one entry are separate records, joined by “and”; a condition that tells them apart may be missing. Equal entries are not always repeated.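 Cells were grown in 96-well plates and exposed to each compound for 48 hours at five concentrations; endpoints were interpolated linearly between bracketing concentrations, or set to the highest concentration if not reached. GI50 is the concentration that inhibits growth by half. Definition used: TGI = concentration required for complete inhibition of growth.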

Assays:
Assay in all cases: NCI anticancer screen, dose series, 48 h
HCC-2998 colon = test system: HCC-2998 colon
HCT-15 colon = test system: HCT-15 colon
HL-60(TB) leukemia = test system: HL-60(TB) leukemia
NCI-H522 lung = test system: NCI-H522 lung
OVCAR-4 ovarian = test system: OVCAR-4 ovarian
OVCAR-8 ovarian = test system: OVCAR-8 ovarian
PC-3 prostate = test system: PC-3 prostate
RPMI-8226 leukemia = test system: RPMI-8226 leukemia
SF-268 CNS = test system: SF-268 CNS
SK-MEL-2 melanoma = test system: SK-MEL-2 melanoma

## CN[C@H]1C=C[C@@H]2/C=C(C)/C=C/[C@@H](C)[C@H]([C@H](C)[C@H](O)[C@@H](C)NC(C)=O)OC(=O)/C=C/C=C(C)\C=C\[C@]2(C)C1
HCC-2998 colon
  GI50: 5.5 µM
  TGI: > 49 µM
HCT-15 colon
  GI50: 0.0906 µM and 0.0814 µM
  TGI: > 49 µM
HL-60(TB) leukemia
  GI50: 0.0332 µM
  TGI: 35.7 µM
NCI-H522 lung
  GI50: 0.045 µM and 0.0229 µM
  TGI: 13.1 µM
OVCAR-4 ovarian
  GI50: 7.12 µM
  TGI: > 49 µM
OVCAR-8 ovarian
  GI50: 0.00922 µM
  TGI: > 49 µM
PC-3 prostate
  GI50: 0.0049 µM
  TGI: > 49 µM
RPMI-8226 leukemia
  GI50: 0.0049 µM
  TGI: 33.2 µM
SF-268 CNS
  GI50: 0.0821 µM and 0.042 µM
  TGI: > 49 µM
SK-MEL-2 melanoma
  TGI: 27.9 µM

## CCN(Cc1cccc(F)c1)c1ccc(CO)c(Cl)c1
HCC-2998 colon
  GI50: 10.7 µM
  TGI: 35.5 µM
HCT-15 colon
  GI50: 14.5 µM
  TGI: > 100 µM
HL-60(TB) leukemia
  GI50: 19.6 µM
  TGI: > 69.8 µM
NCI-H522 lung
  GI50: 19.2 µM
  TGI: 58.6 µM
OVCAR-4 ovarian
  GI50: 0.318 µM
  TGI: 15.1 µM
OVCAR-8 ovarian
  GI50: 17.3 µM
  TGI: > 60.9 µM
PC-3 prostate
  GI50: 21.8 µM
  TGI: > 82.5 µM
RPMI-8226 leukemia
  GI50: 5.98 µM
  TGI: > 56 µM
SF-268 CNS
  GI50: 29.9 µM
  TGI: > 82.8 µM
SK-MEL-2 melanoma
  GI50: 4.54 µM
  TGI: 25.1 µM

## OCc1ccc(-c2ccc(-c3ccc(CO)o3)[se]2)o1
HCC-2998 colon
  GI50: > 100 µM
  TGI: > 100 µM
HCT-15 colon
  GI50: > 100 µM
  TGI: > 100 µM
HL-60(TB) leukemia
  GI50: 39.7 µM
  TGI: > 100 µM
NCI-H522 lung
  GI50: 53.4 µM
  TGI: > 100 µM
OVCAR-4 ovarian
  GI50: 35.4 µM
  TGI: > 100 µM
OVCAR-8 ovarian
  GI50: 55.8 µM
  TGI: > 100 µM
PC-3 prostate
  GI50: 69.1 µM
  TGI: > 100 µM
RPMI-8226 leukemia
  GI50: 33.7 µM
  TGI: > 100 µM
SF-268 CNS
  GI50: > 100 µM
  TGI: > 100 µM
SK-MEL-2 melanoma
  GI50: > 84.5 µM
  TGI: > 100 µM

## CCOC(=O)c1sc(-c2ccc(OS(=O)(=O)c3ccc(Br)s3)c(C=O)c2)nc1C
HCC-2998 colon
  GI50: 13.3 µM
  TGI: 29.3 µM
HCT-15 colon
  GI50: 2.61 µM
  TGI: 7.79 µM
HL-60(TB) leukemia
  GI50: 3.66 µM
  TGI: 19.7 µM
NCI-H522 lung
  GI50: 2.96 µM
  TGI: 10.5 µM
OVCAR-4 ovarian
  GI50: 3.06 µM
  TGI: 9.85 µM
OVCAR-8 ovarian
  GI50: 3.26 µM
  TGI: 16.5 µM
PC-3 prostate
  GI50: 2.97 µM
  TGI: 11 µM
RPMI-8226 leukemia
  GI50: 1.94 µM
  TGI: 5.18 µM
SF-268 CNS
  GI50: 3.01 µM
  TGI: 13.2 µM
SK-MEL-2 melanoma
  GI50: 4.83 µM
  TGI: 27.8 µM

## CO[C@H]1/C=C/O[C@@]2(C)Oc3c(C)c(O)c4c(c3C2=O)C(=O)C(/C=N/N(c2ccccc2)c2ccccc2)=C(NC(=O)/C(C)=C\C=C\[C@H](C)[C@H](O)[C@@H](C)[C@@H](O)[C@@H](C)[C@H](OC(C)=O)[C@@H]1C)C4=O
HCC-2998 colon
  GI50: 2.07 µM
  TGI: 4.08 µM
HCT-15 colon
  GI50: 1.63 µM
  TGI: 3.4 µM
HL-60(TB) leukemia
  GI50: 2.17 µM
  TGI: 4.7 µM
NCI-H522 lung
  GI50: 1.72 µM
  TGI: 3.42 µM
OVCAR-4 ovarian
  GI50: 1.65 µM
  TGI: 3.15 µM
OVCAR-8 ovarian
  GI50: 1.99 µM
  TGI: 4.21 µM
PC-3 prostate
  GI50: 1.32 µM
  TGI: 2.82 µM
RPMI-8226 leukemia
  GI50: 1.43 µM
  TGI: 4.31 µM
SF-268 CNS
  GI50: 1.79 µM
  TGI: 3.37 µM
SK-MEL-2 melanoma
  GI50: 1.86 µM
  TGI: 3.6 µM

## CCCNNC(=O)/C=C/c1ccc(CNCCc2c(C)[nH]c3ccccc23)cc1
HCC-2998 colon
  GI50: 0.0449 µM
  TGI: 0.115 µM
HCT-15 colon
  GI50: 0.0954 µM
  TGI: 3.16 µM
HL-60(TB) leukemia
  GI50: 0.0123 µM
  TGI: 3.96 µM
NCI-H522 lung
  GI50: 0.0447 µM
  TGI: 4.19 µM
OVCAR-4 ovarian
  GI50: 0.0525 µM
  TGI: 6.45 µM
OVCAR-8 ovarian
  GI50: 0.0149 µM
  TGI: 3.92 µM
PC-3 prostate
  GI50: 0.0175 µM
  TGI: 3.74 µM
RPMI-8226 leukemia
  GI50: 0.0101 µM
  TGI: 0.337 µM
SF-268 CNS
  GI50: 0.0744 µM
  TGI: 0.951 µM
SK-MEL-2 melanoma
  GI50: 0.0342 µM
  TGI: 3.68 µM

## CC(=O)OCC1OC(n2c(-c3ccc(Cl)cc3)ccc(C#N)c2=S)C(OC(C)=O)C(OC(C)=O)C1OC(C)=O (centres undefined)
HCC-2998 colon
  TGI: > 100 µM
HCT-15 colon
  TGI: > 100 µM
HL-60(TB) leukemia
  TGI: > 100 µM
NCI-H522 lung
  GI50: 27.8 µM and 61.6 µM
  TGI: > 100 µM
OVCAR-4 ovarian
  GI50: > 100 µM and 19.9 µM
  TGI: > 100 µM and 93.3 µM
OVCAR-8 ovarian
  GI50: 16.4 µM and 34.9 µM
  TGI: > 100 µM
PC-3 prostate
  TGI: > 100 µM
RPMI-8226 leukemia
  TGI: > 100 µM
SF-268 CNS
  GI50: 5.5 µM and 34.9 µM
  TGI: > 100 µM
SK-MEL-2 melanoma
  GI50: 16 µM and 87 µM
  TGI: 45.6 µM and > 100 µM

## CCc1cccc(C)c1NC(=O)c1sc2nc3c(cc2c1N)CCCCC3
HCC-2998 colon
  GI50: 12.4 µM
  TGI: 85.8 µM
HCT-15 colon
  GI50: 3.17 µM
  TGI: > 100 µM
HL-60(TB) leukemia
  GI50: 2.85 µM
  TGI: 11.8 µM
NCI-H522 lung
  GI50: 2.78 µM
  TGI: 41.9 µM
OVCAR-4 ovarian
  GI50: 8.37 µM
  TGI: > 100 µM
OVCAR-8 ovarian
  GI50: 3.72 µM
  TGI: > 100 µM
PC-3 prostate
  GI50: 3.19 µM
  TGI: > 100 µM
RPMI-8226 leukemia
  GI50: 4.3 µM
  TGI: 25 µM
SF-268 CNS
  GI50: 7.69 µM
  TGI: > 100 µM
SK-MEL-2 melanoma
  GI50: 3.27 µM
  TGI: > 100 µM

## CCCN(CCCC(NC(C)=O)C(=O)NCc1ccccc1)C(=O)N(CCCl)N=O (centres undefined)
HCC-2998 colon
  TGI: 26.4 µM
HCT-15 colon
  TGI: 42.5 µM
HL-60(TB) leukemia
  TGI: 30.6 µM
NCI-H522 lung
  TGI: 29.2 µM
OVCAR-4 ovarian
  TGI: > 85 µM
OVCAR-8 ovarian
  TGI: 12.7 µM
PC-3 prostate
  TGI: > 100 µM
RPMI-8226 leukemia
  TGI: 69 µM
SF-268 CNS
  TGI: 42.6 µM
SK-MEL-2 melanoma
  TGI: 43.9 µM

## C=C1C(O)C2C(=C(CCc3ccccc3)C13CC3)C(=O)C(C)(CO)C2O (centres undefined)
HCC-2998 colon
  GI50: > 100 µM
  TGI: > 100 µM
HCT-15 colon
  GI50: > 100 µM
  TGI: > 100 µM
HL-60(TB) leukemia
  GI50: 81.9 µM
  TGI: > 100 µM
NCI-H522 lung
  GI50: > 100 µM
  TGI: > 100 µM
OVCAR-4 ovarian
  GI50: > 100 µM
  TGI: > 100 µM
OVCAR-8 ovarian
  GI50: > 100 µM
  TGI: > 100 µM
PC-3 prostate
  GI50: > 100 µM
  TGI: > 100 µM
RPMI-8226 leukemia
  GI50: 22.2 µM
  TGI: 70.2 µM
SF-268 CNS
  GI50: > 100 µM
  TGI: > 100 µM
SK-MEL-2 melanoma
  GI50: > 100 µM
  TGI: > 100 µM

## O=C(CO[N+](=O)[O-])Nc1ccc(C(=O)/C=C/c2ccc(Cl)cc2)cc1
HCC-2998 colon
  GI50: 1.75 µM
  TGI: 3.64 µM
HCT-15 colon
  GI50: 2.03 µM
  TGI: 6.53 µM
HL-60(TB) leukemia
  GI50: 3.59 µM
  TGI: > 100 µM
NCI-H522 lung
  GI50: 2.31 µM
  TGI: 8.37 µM
OVCAR-4 ovarian
  GI50: 4.06 µM
  TGI: 21 µM
OVCAR-8 ovarian
  GI50: 3.24 µM
  TGI: 14 µM
PC-3 prostate
  GI50: 2.74 µM
  TGI: 14.8 µM
RPMI-8226 leukemia
  GI50: 1.41 µM
  TGI: 8.36 µM
SF-268 CNS
  GI50: 2.62 µM
  TGI: 11.7 µM
SK-MEL-2 melanoma
  GI50: 9.69 µM
  TGI: 23.3 µM

## CC[N+](CC)=c1sc2c(s1)C(c1ccc(Cl)cc1)Oc1ccc(Cl)cc1-2 (centres undefined)
HCC-2998 colon
  GI50: 1.52 µM
  TGI: 3.74 µM
HCT-15 colon
  GI50: 7.13 µM
  TGI: 21.5 µM
HL-60(TB) leukemia
  GI50: 2.22 µM
  TGI: 5.98 µM
NCI-H522 lung
  GI50: 0.67 µM
  TGI: 2.89 µM
OVCAR-4 ovarian
  GI50: 3.03 µM
  TGI: 12.7 µM
OVCAR-8 ovarian
  GI50: 1.97 µM
  TGI: 5.41 µM
PC-3 prostate
  GI50: 1.38 µM
  TGI: 3.28 µM
RPMI-8226 leukemia
  GI50: 1.99 µM
  TGI: 7.5 µM
SF-268 CNS
  GI50: 0.461 µM
  TGI: 2.08 µM
SK-MEL-2 melanoma
  GI50: 1.03 µM
  TGI: 2.81 µM
